This test concerns the target T1, human FSH receptor (Homo sapiens, UniProt P23945).
T1 construct: expressed in transfected cells; host or cells: CHO cells (hFSHR clone 16)
T1 sequence (P23945 18-695): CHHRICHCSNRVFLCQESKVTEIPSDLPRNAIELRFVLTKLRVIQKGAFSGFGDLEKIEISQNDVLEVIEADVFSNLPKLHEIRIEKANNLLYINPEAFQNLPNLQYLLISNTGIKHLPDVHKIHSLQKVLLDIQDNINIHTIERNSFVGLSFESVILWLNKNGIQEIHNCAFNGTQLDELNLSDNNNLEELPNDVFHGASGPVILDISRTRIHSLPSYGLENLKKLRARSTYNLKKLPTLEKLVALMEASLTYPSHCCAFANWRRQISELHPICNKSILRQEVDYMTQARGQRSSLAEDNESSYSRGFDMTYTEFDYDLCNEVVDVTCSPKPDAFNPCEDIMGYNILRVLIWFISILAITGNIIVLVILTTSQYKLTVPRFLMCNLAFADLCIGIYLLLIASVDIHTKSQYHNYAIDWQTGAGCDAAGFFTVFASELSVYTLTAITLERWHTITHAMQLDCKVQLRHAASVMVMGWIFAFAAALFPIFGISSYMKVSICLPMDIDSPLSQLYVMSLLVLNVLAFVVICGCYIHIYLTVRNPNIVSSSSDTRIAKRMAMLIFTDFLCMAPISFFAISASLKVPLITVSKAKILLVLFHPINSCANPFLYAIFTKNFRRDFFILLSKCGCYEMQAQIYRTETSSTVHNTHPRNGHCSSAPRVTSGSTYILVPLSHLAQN
Kind of test: HTRF assay for measuring cAMP in cells (FSH antagonism). Format: cell-based. As to conditions: hFSHR clone 16 cells (CHO cells stably transfected with the human FSH receptor), in the presence of 1e-9 mol/l hFSH, 37° C. for 2 h, read-out: IC50 (FSH-antagonistic effect in the HTRF assay). As for the experimental part:
HTRF Assay for Measuring cAMP in Cells
The method is based on a competitive immunoassay between native cAMP, which has been produced by the cells, and cAMP which is labelled with XL665. The tracer binding was visualized by a monoclonal antibody, anti-cAMP labelled with cryptate [HTRF=homogeneous time-resolved fluorescence].
The specific signal is inversely proportional to the cAMP concentration of the samples employed.
The 665 nm/620 nm fluorescence ratio was evaluated.
The following material was used: 96-well plates for the tissue culture, 96-well plates with black edge and black base (e.g. Fluotrac 600 from Greiner), 96-well plates for the substance dilutions of polypropylene and cAMP Femtomolar (4000 wells Kit, CIS Bio International # 62AM1PEC).
The following reagents were used: BSA (bovine serum albumin) Fraction V protease-free, IBMX (3-isobutyl-1-methylxanthine), hFSH (human follicle stimulating hormone), Triton X-100 analytical grade, potassium fluoride analytical grade, G 418 (Geneticin) and Accutase.
Buffer 1 (washing and testing buffer) contained PBS, 1 mM CaCl2, 1 mM MgCl2, 0.2% glucose; 0.1% BSA, 1 mM IBMX.
Buffer 2 (2× lysis buffer) contained 1% Triton X-100 in PBS (without CaCl2 and MgCl2).
Buffer 3 (assay buffer) contained 50 mM potassium phosphate buffer (pH 7.0); 800 mM potassium fluoride; 0.2% BSA (always added fresh).
On day 1, the cells were seeded in 96-well plates (3×10^4 cells per well hFSHR clone 16 cells (CHO cells stably transfected with the human FSH receptor in 150 μl of medium).
The next day, test substance dilutions were made up. For this purpose, all the substances were diluted in ice-cold buffer 1 (with or without hFSH), and the substance dilutions were placed on ice until applied to the cells.
The cell supernatant was then aspirated off, and the cells were washed 2× with 200 μl of buffer 1. The cells were treated with 60 μl of the appropriate substance concentrations at 37° C. for 2 h. The cells were then lysed with 60 μl of buffer 2 (put onto the supernatant) (on a plate shaker at RT for 30 min).
The test conjugates (XL-665 and anti-cAMP cryptate) were diluted in buffer 3 in accordance with the manufacturers' information. The actual mixture for measurement was pipetted into a black 96-well plate (in each case 15 μl of the cell lysate diluted with 35 μl of buffer 1; firstly 25 μl of XL-665 conjugate were pipetted and, after 10 min, 25 μl of the anti-cAMP cryptate were added). This is followed by incubation at RT for 90 minutes. The measurement was carried out in a PheraStar (BMG).
Tissue Culture Conditions
Dose-effect curve (hFSH) for the human receptor: 1e-8, 3e-9, 1 e-9, 3e-10, 1 e-10, 3e-11, 1e-11, 3e-12 mol/l.
The test substances were employed in suitable dilutions in the absence (test for agonism) and in the presence of 1e-9 mol/l hFSH.
The values of the well ratio were averaged and then entered directly in SigmaPlot versus the concentrations. The maximum and minimum values were determined for each plate, and half the difference is to be regarded as IC50.

Structures are written as SMILES. Like-named read-outs stand apart in the source and are kept apart here.

In general, IC50 refers to the midpoint of a concentration-inhibition curve. On to `O=C(N[C@@H](CO)Cc1c[nH]c2ccccc12)c1cc(-c2ccc(-c3ccccc3)cc2)cc2c1OCCO2` [Example 92, 7-Biphenyl-4-yl-2,3-dihydro-benzo[1,4]dioxine-5-carboxylic acid [(R)-1-hydroxymethyl-2-(1H-indol-3-yl)-ethyl]-amide], for which the IC50 (Table 2) worked out at 0.5 µM. Same read-out and setting: with `COC(=O)c1ccc(-c2cc3c(c(C(=O)N[C@@H](CO)Cc4c[nH]c5ccccc45)c2)OCCO3)cc1OC` [Example 118, 4-{8-[(R)-1-Hydroxymethyl-2-(1H-indol-3-yl)-ethylcarbamoyl]-2,3-dihydro-benzo[1,4]dioxin-6-yl}-2-methoxy-benzoic acid methyl ester] the figure was 0.13 µM. Regarding `Cc1cc(C)cc(-c2cc3c(c(C(=O)N[C@@H](CO)Cc4c[nH]c5ccccc45)c2)OCC3)c1` [Example 78, 5-(3,5-Dimethyl-phenyl)-2,3-dihydro-benzofuran-7-carboxylic acid [(R)-1-hydroxymethyl-2-(1H-indol-3-yl)-ethyl]-amide], where the note is “Table 1”, the IC50 was 3 µM. As to `COc1ccc(-c2cc3c(c(C(=O)N[C@@H](CO)Cc4c[nH]c5ccccc45)c2)OCCO3)cc1F` [Example 109, 7-(3-Fluoro-4-methoxy-phenyl)-2,3-dihydro-benzo[1,4]dioxine-5-carboxylic acid [(R)-1-hydroxymethyl-2-(1H-indol-3-yl)-ethyl]-amide], where the note is “Table 2”, the IC50 came out at 0.95 µM.

As for `CNC(=O)c1ccc(-c2cc3c(c(C(=O)NC(CO)Cc4c[nH]c5ccc(F)cc45)c2)OC(C)(C)C=C3)cc1Cl` (stereo not shown) [Example 89, 6-(3-Chloro-4-methylcarbamoyl-phenyl)-2,2-dimethyl-2H-chromene-8-carboxylic acid [2-(5-fluoro-1H-indol-3-yl)-1-hydroxymethyl-ethyl]-amide], the IC50 (Table 2) came out at 0.02 µM.

Consider `CNC(=O)c1cccc(C#Cc2cc3c(c(C(=O)N[C@@H](CO)Cc4c[nH]c5ccccc45)c2)OC(C)(C)C=C3)c1` [Example 11, 2,2-Dimethyl-6-(3-methylcarbamoyl-phenylethynyl)-2H-chromene-8-carboxylic acid [(R)-1-hydroxymethyl-2-(1H-indol-3-yl)-ethyl]-amide], for which, under “Table 1”, the IC50 was found to be 0.03 µM. `N#Cc1cc(-c2cc3c(c(C(=O)N[C@@H](CO)Cc4c[nH]c5ccccc45)c2)OCCO3)ccc1F` [Example 104, 7-(3-Cyano-4-fluoro-phenyl)-2,3-dihydro-benzo[1,4]dioxine-5-carboxylic acid [(R)-1-hydroxymethyl-2-(1H-indol-3-yl)-ethyl]-amide]: under “Table 2”, the IC50 turned out to be 1 µM. On the same count and under the same terms, with `CS(=O)(=O)c1cccc(-c2cc3c(c(C(=O)N[C@@H](CO)Cc4c[nH]c5ccccc45)c2)OCCO3)c1` [Example 116, 7-(3-Methanesulfonyl-phenyl)-2,3-dihydro-benzo[1,4]dioxine-5-carboxylic acid [(R)-1-hydroxymethyl-2-(1H-indol-3-yl)-ethyl]-amide] the figure was 2 µM; with `CNC(=O)c1ccc(-c2cc3c(c(C(=O)NC(CO)Cc4c[nH]c5c(F)cc(F)cc45)c2)OC(C)(C)CC3)cc1Cl` (stereo not shown) [Example 190, 6-(3-Chloro-4-methylcarbamoyl-phenyl)-2,2-dimethyl-chroman-8-carboxylic acid [2-(5,7-difluoro-1H-indol-3-yl)-1-hydroxymethyl-ethyl]amide], 0.07 µM. On to `O=C(N[C@@H](CO)Cc1c[nH]c2ccccc12)c1cc(-c2ccc3c(c2)OCO3)cc2c1OCC2` [Example 23, 5-Benzo[1,3]dioxol-5-yl-2,3-dihydro-benzofuran-7-carboxylic acid [(R)-1-hydroxymethyl-2-(1H-indol-3-yl)-ethyl]-amide], for which the IC50 (Table 1) was 0.45 µM.

For the origin of these results see US20080207728A1, “BICYCLIC ACYLTRYPTOPHANOLS” (priority 2006, published 2008).
